Consider 1 compound from publication PMC11964921 (npj Drug Discovery, 2025).

Some results are limits rather than exact numbers.

Assay [1] relates to M. tuberculosis multi-drug-resistant clinical strains. Description: microbe, parasite or virus in culture. It is filed as cell-based. The conditions noted are these: for MIC: Mycobacterium tuberculosis.
Assay [2] deals with M. tuberculosis H37Rv-ΔcydAB. The arrangement: species or system mouse (Balb/cBy). To be noted: mouse, in vivo.

For `CCc1nc2ccc(Cl)cn2c1C(=O)NCc1ccc(C2CC3(C2)CN(S(=O)(=O)C(F)(F)F)C3)cc1` [JNJ-2901], the MIC in assay [1] (all 18 clinical strains) is below 1 nM; in assay [1] (all 18 clinical strains, Middlebrook 7H9 medium) it was at most 0.5 ng/mL; in assay [1] (strain 661706043123, resistant to INH, PAS), at most 0.5 ng/mL; in assay [1] (strain 661710016056, resistant to INH, S, PAS), at most 0.5 ng/mL; in assay [1] (strain 661904036200, resistant to INH, PAS), at most 0.5 ng/mL; in assay [1] (strain 661906047849, resistant to INH, RIF, S, PZA, ETH, PAS, EMB, CYC), at most 0.5 ng/mL. Also, the MIC in assay [1] (strain 661907010966, resistant to INH, RIF, S, PAS, EMB, PZA, CYC, AMK, KAN, CAP, ETH) is at most 0.5 ng/mL; in assay [1] (strain 661908012994, resistant to INH, RIF, S, PZA, PAS, ETH), at most 0.5 ng/mL; in assay [1] (strain 661911031781, resistant to INH, RIF, S, PAS, CYC, ETH, KAN) it was at most 0.5 ng/mL; in assay [1] (strain 661911038007, resistant to INH, RIF, S, PAS), at most 0.5 ng/mL; in assay [1] (strain 662001006107, resistant to INH, RIF, PZA, S, PAS, CYC, ETH, FQL), at most 0.5 ng/mL; in assay [1] (strain 662001039167, resistant to INH, RIF, S, PAS, EMB, PZA, CYC, KAN) it was at most 0.5 ng/mL. For the same compound, the MIC in assay [1] (strain 662001071666, resistant to INH, RIF, S, PAS, PZA, EMB, ETH) is at most 0.5 ng/mL; in assay [1] (strain 662003052840, resistant to INH, EMB, PZA, S, CYC, PAS, ETH), at most 0.5 ng/mL; in assay [1] (strain 662004032055, resistant to INH, RIF, S, PAS, ETH), at most 0.5 ng/mL; in assay [1] (strain 662008015398, resistant to INH, RIF, S, PAS, EMB, PZA, ETH), at most 0.5 ng/mL; in assay [1] (strain 662012006551, resistant to INH, PAS, PZA, ETH (LNZ geno)), at most 0.5 ng/mL; in assay [1] (strain 662101040833, resistant to INH, RIF, PZA, S, PAS, EMB, ETH, KAN, CAP, AMK, CYC), at most 0.5 ng/mL. Also, the MIC in assay [1] (strain 662105041666, resistant to INH, RIF, S, PZA, EMB, FQL, ETH, CYC, PAS) is at most 0.5 ng/mL; in assay [1] (strain 662108038389, resistant to INH, RIF, S, PAS), at most 0.5 ng/mL. The “concentration of growth inhibition (in words)” value in assay [1] (clinical multidrug-resistant M. tuberculosis strains) is on record as “sub-nanomolar”. The “reduction in bacterial burden / lung CFU” value in assay [2] is listed as 4 log.
